Laboratory results from patent US12544335B2, “Treatment approach by targeted delivery of bioactive molecules” (priority 2018, dated 2026).

Columns and labels:
[1] = tested on: S. aureus ATCC 25923; assay: In-vivo biomodulation of HA pellets by systemic TET, disk diffusion assay; assay type: cell-based; details: TET 25 mg/rat i.p. for 3 days, 24 h after 3rd injection
Method: METHODS: (1) In-vitro binding experiment: Nano-HA powder of <200 nm particle size, with a majority of the particles being in size of about 50 nm (100 mg; Fluidnova) was measured in 2 mL microcentrifuge tubes in triplicates and 1 mL of TET solution (4 μg/mL) was added. After vortex mixing, tubes were kept on a rotator at 180 RPM for 1, 6, and 12 h. At desired time points, the tubes were removed and centrifuged at 14000 RPM for 2 min. The supernatant was discarded and sediments were then “washed” 4 times by adding 1 mL of saline (NaCl 0.9%) followed by vortex mixing and centrifuging at 14000 RPM for 2 min. After 4 washing-cycles, supernatants were discarded and 60 μL of hyaluronic acid (HAD, 1 mg/mL) was added to the sediments and mixed. Pastes were then transferred to an elastic mold (Ø=4.7 mm) and placed at −20° C. for an hour to freeze nano-HA paste into pellet. Frozen pellets were removed from the molds and brought to room temperature. […] After overnight incubation at 37° C., the diameter of the zone of inhibition (ZOI) around the pellets were measured.
(2) In-vivo biomodulation: Pellets of nano-/micro-HA were prepared by mixing 100 mg of nano-/micro-HA (Fluidnova, wherein the micro-HA particles are about 10 μm, and wherein the nano-HA particles are less than 200 nm and a majority of the nano-HA particles about 50 nm) with 60 and 80 μL of HAD, (1 mg/mL) respectively. […]

[2] = Tetracycline uptake in CaS/HA pellet in muscle pouch, fluorescence microscopy; details: 1 day later
Method: Methods: A pellet of CaS/HA biomaterial (5 mm diameter×2 mm height) was placed in an abdominal muscle pouch of rats. […] 1-day later, the animals were sacrificed and the pellet of CaS/HA as well as surrounding muscle was harvested, fixed in formalin (4%) and embedded in paraffin. The tissue was then cut using a microtome to a thickness of 5 μm. The sections were de-paraffinized using xylene, rehydrated using decreasing ethanol gradient and cleared in water. Finally, the sections were analyzed on a fluorescence microscope (Zeiss, Japan Filter: FITC, Gain: 0, Exposure: 150 ms).

[3] = Long term elution of gentamycin from HA/Sulphate carrier; assay type: physicochemical
[4] = tested on: S. aureus; assay: Example 18: zone of inhibition of materials harvested from rat muscle pouch; assay type: cell-based; details: Cerament G / Cerament V, 2 weeks implanted, no systemic antibiotic
Description: Small pellets of pristine hydroxyapatite (HA) of nano or micro size (wherein the micro-HA particles are about 10 μm, wherein the nano-HA particles are less than 200 nm and a majority of the nano-HA particles about 50 nm) were implanted in the abdominal muscle pouch of rats (Group 1). In another set of animals, pellets of calcium sulphate and micro-sized HA (Cerament) containing gentamycin (Cerament G) or vancomycin (Cerament V) were implanted in the muscle pouch of rats (Group 2).
[…] Tibial cortical bone samples were also collected as positive control and muscle tissue from the abdomen was collected as a negative control.
In group 2, no antibiotics were administered systemically, and the implants only contained locally added antibiotics at the time of administration.
All samples were snap frozen in liquid nitrogen and pulverized using a mortar and pestle. Pulverized specimens were then placed in a silicon mold, casted as a pellet and placed in a bacterial culture plate containing S. aureus, a common pathogen found in bone and joint infections.

[5] = Accretion and long-term availability of 14C-ZA in CaS/HA in femoral neck canal; assay type: in vivo, osteoporotic rats; details: systemic dose 0.1 mg/kg 2 weeks post implantation
Method: Methods: The CaS/HA biomaterial was implanted in the femoral neck canal of 6 osteoporotic rats. The animals (n=3) then received a systemic (sub-cutaneous) dose of ^14C-ZA (0.1 mg/kg, specific radioactivity: 7.1 MBq/mL) 2-weeks post implantation. The animals were sacrificed 6 months post implantation (5 months and 2 weeks post injection). Results: The uptake of ^14C-ZA in the animals that were given a systemic dose of ^14C-ZA was verified using scintillation counting. Results are illustrated in FIG. 6.

[6] = Re-loading of apatite particles by repeated 14C-ZA injection; assay type: in vivo, rats; details: injections day 14 and day 27, average
Method: Methods: We used 25 mg of micro sized pure apatite particles (size: 10 μm) and 25 mg of nano sized apatite particles (size: <200 nm) and placed them bilaterally in the abdominal muscle pouch of rats. Two different time points were used. At time point 1 (day 14), all animals received the same amount of the radioactive ^14C-ZA. […] All animals were sacrificed a day later and the uptake of the drug measured in the apatite particles of two different sizes using scintillation counting.

[7] = Apatite particle size dependence of 14C-ZA uptake in muscle pouch; assay type: in vivo, rats; details: 25 mg particles, 0.1 mg/kg ZA 2 weeks post implantation, 1 day post injection
Method: Method: We used 25 mg of micro sized pure apatite particles (size: 10 μm) and 25 mg of nano sized apatite particles (size: <200 nm) and placed them bilaterally in the abdominal muscle pouch of rats. Each animal then received a systemic dose of ^14C-ZA 2-weeks post implantation (Injection dose: 0.1 mg/kg ZA, drug/rat: 40 μg, specific radioactivity: 7.1 MBq/mL, ZA concentration: 1 mg/mL). The rats were sacrificed 1-day post injection and the radioactivity in micro and nano apatite particles was measured using scintillation counting.

[8] = Uptake of systemic 14C-ZA in CaS/HA pellet in abdominal muscle pouch; assay type: in vivo, rats
Method: 2-weeks after surgery, the animals were injected with ^14C labelled ZA (0.1 mg/kg, specific radioactivity: 7.1 MBq/mL) via the systemic route (sub-cutaneous) and the radioactivity was measured in 1) the CaS/HA pellet placed in the muscle and 2) surrounding muscle 24-h later.

[9] = In-vitro release of isoniazid from CaS/HA pellets in PBS; assay type: physicochemical; details: day 1, PBS
Method: Method: Isoniazid was mixed to CaS/HA biomaterial and equal volume pellets were created. Each pellet was then placed in a 1.5 mL tube and filled with 1 mL phosphate buffered saline (PBS). At each time point, the old PBS was removed and frozen until the day of analysis. The tube was refilled with fresh PBS (1 mL). All samples were analyzed spectrophotometrically and the concentration of the released antibiotic was calculated from a standard curve of isoniazid made in PBS.

[10] = In-vitro doxorubicin release from CaS/HA pellets; assay type: physicochemical
Method: Methods: Pellets of CaS/HA biomaterial were made by mixing 10 μg Doxorubicin/pellet. Each pellet containing 10 μg Doxorubicin was immersed in 1 mL PBS at two different pH (5 and 7.4). At each time point, old PBS was frozen until further analysis and the tube refilled with 1 mL fresh PBS. The experiment was conducted for a period of 4-weeks. Supernatants were analyzed on a spectro fluorimeter (excitation: 485 nm and emission: 580 nm).

[11] = In-vivo doxorubicin binding to nano apatite particles in muscle pouch, fluorescence microscopy; set-up: species or system rats
Method: Methods: 25 mg of nano sized apatite particles (size <200 nm) were implanted in the abdominal muscle pouch of rats. Animals were injected with 5 mg/kg doxorubicin re-suspended in PBS 2-weeks post implantation and the animals were sacrificed 1 day later. The specimens were harvested from the implanted muscle pouch and as a positive control, the site of doxorubicin systemic injection (skin under the neck) was also taken for histology. The samples were embedded in paraffin and cut to a thickness of 5 μm. The samples were then analyzed on a fluorescent microscope (excitation: 485 nm and emission: 580 nm).

[12] = In-vitro doxorubicin binding to apatite particles; details: 10 μg Doxorubicin in 1 mL PBS, 48 h
Method: Methods: 5 mg, 10 mg and 20 mg apatite particles were suspended in 1 mL PBS containing 10 μg Doxorubicin and homogenously distributed in the suspension using sonication for 5 min. The specimens were rotated gently on a rotational shaker for 48 h (speed: 50 rpm). After 48 h, the specimens were centrifuged to obtain a pellet of the apatite particles and the supernatant was collected. The apatite particles were then resuspended in 1 mL of PBS, thoroughly pipetted to wash the unbound drug. At this point, the particles were centrifuged again and the supernatant was collected. The washing was repeated once again using the same protocol and the supernatant from the original time and 2 supernatants from the washing steps were measured for fluorescence on a spectro fluorimeter (excitation: 485 nm and emission: 580 nm). Bound doxorubicin to the apatite particles was also detected using fluorescence microscopy. Unbound free drug was used as a control.

CN(C)[C@@H]1C(O)=C(C(N)=O)C(=O)[C@@]2(O)C(O)=C3C(=O)c4c(O)cccc4[C@@](C)(O)[C@H]3C[C@@H]12 [tetracycline]
ZOI of kidney samples [1]: 14-17 mm | ZOI of liver samples [1]: 10-12 mm | uptake of tetracycline in CaS/HA biomaterial ([2]; 25 mg/kg sub-cutaneous 2 weeks after surgery): clear uptake | uptake of tetracycline in surrounding muscle ([2]; 25 mg/kg sub-cutaneous): no uptake

Gentamycin
release of gentamycin from biphasic HA/Sulphate carrier ([3]; at one month): complete release | time by which the Apatite/Sulphate material releases gentamycin ([3]; trend line, elution over 2 months): ≤ 4 weeks | inhibition of bacterial growth by CaS/HA with locally added antibiotic [4]: could not inhibit bacterial growth

O=P(O)(O)C(O)(Cn1ccnc1)P(=O)(O)O [^14C-ZA]
time the drug stays in the apatite material [5]: at least 6 months | increase of counts of 14C-ZA after 2 injections compared to one injection ([6]; micro-particles (10 μm)): 72% | higher counts of 14C-ZA after 2 injections compared to one injection ([6]; nano-apatite particles (<200 nm)): 77% | uptake of 14C-ZA, micro (10 μm) vs nano (<200 nm) apatite particles [7]: higher in micro-apatite particles compared to nano-apatite particles in 4 out of 5 specimens | uptake of 14C-ZA in CaS/HA biomaterial ([8]; 0.1 mg/kg sub-cutaneous 2 weeks after surgery, measured 24 h later): obvious | radioactivity in muscle surrounding the implant ([8]; 0.1 mg/kg sub-cutaneous, 24 h later): very low radioactive counts

NNC(=O)c1ccncc1 [Isoniazid]
antibiotic released from CaS/HA [9]: approximately 60%

COc1cccc2c1C(=O)c1c(O)c3c(c(O)c1C2=O)C[C@@](O)(C(=O)CO)C[C@@H]3O[C@H]1C[C@H](N)[C@H](O)[C@H](C)O1 [doxorubicin]
release at later time points ([10]; after day 3, up to 4 weeks): No further release | burst release of the drug from CaS/HA ([10]; day 1 and 3, PBS pH 5 and 7.4, 10 μg/pellet): 20-35% | release in low pH group compared with pH 7.4 ([10]; pH 5 vs 7.4): slightly higher release | fluorescence at the site of injection ([11]; 5 mg/kg, 1 day after injection, positive control site): Strong fluorescent staining | fluorescence in muscle 1 cm distal from the implant ([11]; 5 mg/kg, 1 day later): did not show any fluorescence | fluorescence in apatite particles and area immediately around ([11]; 25 mg nano apatite, 5 mg/kg 2 weeks post implantation, 1 day later): relatively weak but positive signal | drug bound to apatite particles ([12]; 5 mg apatite particles): approximately 10% | drug bound to apatite particles ([12]; 10 mg apatite particles): 30% | drug bound to apatite particles ([12]; 20 mg apatite particles): approximately 75%

CN[C@H](CC(C)C)C(=O)N[C@H]1C(=O)N[C@@H](CC(N)=O)C(=O)N[C@H]2C(=O)N[C@H]3C(=O)N[C@H](C(=O)N[C@H](C(=O)O)c4cc(O)cc(O)c4-c4cc3ccc4O)[C@H](O)c3ccc(c(Cl)c3)Oc3cc2cc(c3O[C@@H]2O[C@H](CO)[C@@H](O)[C@H](O)[C@H]2O[C@H]2C[C@](C)(N)[C@H](O)[C@H](C)O2)Oc2ccc(cc2Cl)[C@H]1O [Vancomycin]
inhibition of bacterial growth by CaS/HA with locally added antibiotic [4]: could not inhibit bacterial growth

O=P(O)(O)C(O)(Cn1ccnc1)P(=O)(O)O [ZA, Zoledronic Acid]
time the drug stays in the apatite material ([5]; listed as zoledronic acid): 6 months
